The target in one series is T1, eIF5A:DOHH complex (Homo sapiens, UniProt Q9BU89).
T1 construct: Endogenous DOHH co-immunoprecipitated with FLAG-eIF5A; expressed in transfected cells; host or cells: 293T cells (FLAG-eIF5A transfected; DOHH endogenous)
T1 sequence (Q9BU89 1-302): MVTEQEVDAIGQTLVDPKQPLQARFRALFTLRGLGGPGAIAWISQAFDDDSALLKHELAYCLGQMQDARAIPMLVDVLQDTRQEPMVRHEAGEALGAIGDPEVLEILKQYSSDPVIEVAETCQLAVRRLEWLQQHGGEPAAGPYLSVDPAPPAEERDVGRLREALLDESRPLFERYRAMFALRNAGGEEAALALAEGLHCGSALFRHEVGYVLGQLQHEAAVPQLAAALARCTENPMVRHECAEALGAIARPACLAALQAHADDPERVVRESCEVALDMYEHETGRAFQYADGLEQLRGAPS
In words: Co-immunoprecipitation of the eIF5A:DOHH complex from transfected 293T cells. The note with it: CPX 30 μM, DEF 250 μM; for association of endogenous DOHH with FLAG-eIF5A (co-immunoprecipitation): GC7 10 μM, P2 30 μM, DFOX 10 μM, 24 hours post-transfection; for interaction between endogenous eIF5A and tagged DOHH: FLAG-DOHH transfected 293T cells. In kind it is cell-based. The method, then:
Unmodified eIF5A (lysine-50) immunoprecipitates with DHS, and deoxyhypusyl-eIF5A interacts with DOHH in vitro. The deoxyhypusyl-eIF5A:DOHH complex formed in vivo can be detected by immunoprecipitation from cell extracts. Taking advantage of this finding, the effects of the compounds on the enzyme-substrate interaction was tested, the results of which are illustrated in FIG. 2D. FLAG-eIF5A was expressed in 293T cells. 293T cells transfected with FLAG-eIF5A were untreated (-) or treated with GC7 (10 μM) or CPX (30 μM), P2 (30 μM), DEF (250 μM), or DFOX (10 μM). WCE prepared at 24 hours post-transfection was immunoprecipitated with anti-FLAG antibody. Complexes that immunoprecipitated with anti-FLAG antibody were immunoblotted and probed with antibodies against DOHH. […] As a further control, the DHS inhibitor GC7 was included in this assay. […] As expected, none of the compounds affected the immunoprecipitation of FLAG-eIF5A (FIG. 2D, middle panel; note that the band marked with an asterisk (*) is background due to IgG light chain) or the expression of endogenous eIF5A (FIG. 2D, bottom panel).
(§1) FIG. 2E illustrates 293T cells transfected with FLAG-DHS, FLAG-DOHH or empty vector (control) were treated with GC7, CPX, or DEF, or no drug (-) at the same concentration as in FIG. 2D. Immunoprecipitates obtained with anti-FLAG antibody were immunoblotted and probed with anti-eIF5A antibody (BD). WCE equivalent to 5% of the input was immunoblotted as a further control. Reciprocally, the interaction between endogenous eIF5A and tagged DOHH was inhibited by CPX and DEF (FIG. 2E, right). Similarly, the interaction of endogenous eIF5A with tagged DHS was inhibited by GC7 (FIG. 2E, left), but was resistant to CPX and DEF (not shown).

The target in the next series is T2, eIF5A:DHS complexes (Homo sapiens, UniProt P49366).
T2 construct: expressed in transfected cells; host or cells: 293T cells (FLAG-DHS transfected; eIF5A endogenous)
T2 sequence (P49366 1-369): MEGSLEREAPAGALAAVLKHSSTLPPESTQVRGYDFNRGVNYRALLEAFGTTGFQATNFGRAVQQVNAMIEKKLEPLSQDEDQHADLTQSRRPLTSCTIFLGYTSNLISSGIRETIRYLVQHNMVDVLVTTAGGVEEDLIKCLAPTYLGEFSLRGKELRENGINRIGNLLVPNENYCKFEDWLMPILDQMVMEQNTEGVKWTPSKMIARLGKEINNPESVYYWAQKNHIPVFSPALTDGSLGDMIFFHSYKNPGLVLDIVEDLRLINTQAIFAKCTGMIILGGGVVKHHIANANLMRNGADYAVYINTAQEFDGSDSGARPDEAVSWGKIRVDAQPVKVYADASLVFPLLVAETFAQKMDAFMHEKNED
In words: Co-immunoprecipitation of endogenous eIF5A with FLAG-DHS from transfected 293T cells. In kind it is cell-based. The settings on record: FLAG-DHS transfected 293T cells; GC7 10 μM, CPX 30 μM, DEF 250 μM. As to the method:
as §1

In the next series the test system is NMD. The series is described as follows: NMD luciferase reporter assay with vectors containing NMD signals associated with β039-thalassemia. In kind it is cell-based. The settings on record: for drug concentrations at which inhibition of NMD is seen: dose-dependent; for submaximal effect of the NMD inhibitor when combined with nonsense suppressor G418: 15 μM CPX, 125 μM DEF, 200 μM HYD, G418 at 800 μM; for NMD in the thalassemia model system: ratio of Renilla luciferase from NMD-sensitive reporter to matched NMD-insensitive control. The method, then:
The experiment of FIG. 5 used RNA silencing with small interfering RNAs (siRNAs) to deplete eIF5A itself, or either of the modifying enzymes required for hypusine formation. […] Data are shown as ratio of luciferase activities.
These experiments were carried out in the well-authenticated assay system using vectors containing NMD signals associated with β^039-thalassemia (Woeller C F, Gaspari M, Isken O, Maquat L.: EMBO Rep. 2008 May; 9(5):446-51).
Background: A reporter such as luciferase makes a cellular process visible.

For series [1] the following is noted: cited from earlier work.
The target in the next series is T3, DOHH (Homo sapiens, UniProt Q9BU89).
T3 construct: endogenous in cells; host or cells: 293T cells
T3 sequence (Q9BU89 1-302): T1 sequence (Q9BU89 1-302)
The series is described as follows: Immunoblot of eIF5A modification (maturation) in 293T cells transfected with FLAG-tagged eIF5A. The settings on record: for concentration range reducing the appearance of mature eIF5A: FLAG-eIF5A, NIH-353 immunoblot. The series is classed as cell-based. An excerpt:
To examine the effect of compounds on the synthesis of modified eIF5A, 293T cells transfected with a FLAG-tagged eIF5A expression vector were simultaneously treated with ciclopirox (“CPX”) or deferiprone (“DEF”).
FLAG-eIF5A was monitored using NIH-353 and anti-FLAG antibodies (FIGS. 2A and 2B). FIG. 2A illustrates inhibition of eIF5A modification in 293T cells. Cells transfected with FLAG-tagged eIF5A were untreated or treated with increasing concentrations of CPX as indicated, or with agent P2. FIG. 2B illustrates cells transfected with FLAG-tagged eIF5A that were untreated or treated with increasing concentrations of DEF as indicated, or with DFOX. At 24 hours post-transfection, whole cell extract (“WCE”) was analyzed by immunoblotting with the NIH-353 anti-eIF5A antibody (upper panel) and anti-actin antibody (lower panel). The […] antibody reacts preferentially with post-translationally modified eIF5A. CPX reduced the appearance of mature eIF5A over the 3-30 μM concentration range, while DEF was effective at 200-400 μM. […] In addition to the CPX homolog Agent P2, deferoxamine (“DFOX”; Desferal™) was used as a control compound. DFOX, a metal-binding hydroxamate like CPX and Agent P2 (FIG. 3), is a globally used medicinal iron chelator.
FIG. 2C illustrates cells transfected with FLAG-tagged eIF5A that were treated with CPX (30 μM), P2 (30 μM), DEF (250 μM), DFOX (10 μM), or no compound (-). At 24 hours post transfection, WCE was analyzed by immunoblotting with the NIH-353 anti-eIF5A antibody (upper panel) and anti-FLAG antibody (lower panel). The control culture was transfected with empty vector and no compound was added.
Background: Immunoblotting shows a protein as a band on a membrane.

Where [2] appears, read: 293T cells, 24 hours post-transfection.

“Also recorded” adds a separate entry of the source. Some results are limits rather than exact numbers.

On to `NCCCCCCCN=C(N)N` [GC7], for which, on eIF5A:DOHH complex, the “association of endogenous DOHH with FLAG-eIF5A (co-immunoprecipitation)” value (from here on “association of endogenous DOHH”) is “No DOHH was associated with FLAG-eIF5A”. Moreover, the “interaction of endogenous eIF5A with tagged DHS” value (shortened to “interaction of endogenous eIF5A”) at eIF5A:DHS complexes was “inhibited; also recorded: blocked formation”.
In the case of `NNc1nncc2ccccc12` [HYD, hydralazine], the “drug concentrations at which inhibition of NMD is seen” value in the series on NMD (thalassemia model system) was 200/400.
For `Cc1cc(C2CCCCC2)n(O)c(=O)c1` [CPX, ciclopirox], at eIF5A:DOHH complex, the “interaction between endogenous eIF5A and tagged DOHH” value is “inhibited”; the “association of endogenous DOHH” value is on record as “largely prevented; also recorded: destabilized”. For the same compound, the levels in skin in series [1] (topical preparations containing up to 57.5 mM) was > 30 µM. In addition, the “concentration range reducing the appearance of mature eIF5A” value on DOHH (setting [2]) was 3 to 30 µM. The “interaction of endogenous eIF5A” value on eIF5A:DHS complexes is on record as “resistant”. Also, in the series with NMD, the “submaximal effect of the NMD inhibitor when combined with nonsense suppressor G418” value was “distinctly enhanced” and the “NMD in the thalassemia model system” value is on record as “inhibited”. For the same compound, the “drug concentrations at which inhibition of NMD is seen” value in the series with NMD (thalassemia model system) is listed as 15/30.
With `Cc1ccn(O)c(=O)c1` [P2], the “association of endogenous DOHH” value on eIF5A:DOHH complex was “neither P2 or DFOX prevented; also recorded: Neither DFOX nor P2 had any effect”. Besides, at DOHH, the “activity in cell-based assays” value was “little or no activity”. At DOHH (293T cells, 24 hours post-transfection, control compounds), the “effect on the appearance of mature FLAG-eIF5A” value is listed as “little or no effect”.
With `CN[C@@H]1[C@@H](O)[C@@H](O[C@@H]2[C@@H](O)[C@H](O[C@H]3O[C@H]([C@@H](C)O)[C@@H](O)[C@H](O)[C@H]3N)[C@@H](N)C[C@H]2N)OC[C@]1(C)O` [G418], the “effect on expression (nonsense suppressor, for comparison)” value in the series on NMD (thalassemia model system) is on record as “expression-enhancing effect”.
As for `Cc1c(O)c(=O)ccn1C` [DEF, deferiprone], at eIF5A:DOHH complex, the “interaction between endogenous eIF5A and tagged DOHH” value was “inhibited”; the “association of endogenous DOHH” value is “largely prevented; also recorded: destabilized”. Besides, the concentration in serum in series [1] (after oral medication) was ≥ 250 µM. The “concentration range reducing the appearance of mature eIF5A” value at DOHH (setting [2]) fell in the range of 200 to 400 µM. The “interaction of endogenous eIF5A” value on eIF5A:DHS complexes was “resistant”. For the same compound, in the series with NMD, the “submaximal effect of the NMD inhibitor when combined with nonsense suppressor G418” value is on record as “distinctly enhanced” and the “NMD in the thalassemia model system” value was “inhibited”. In addition, the “NMD inhibition by single compound” value in the series with NMD (DEF at 125 μM, HYD at 200 μM, each alone) was “ineffective individually”. Moreover, in the series with NMD (thalassemia model system), the “drug concentrations at which inhibition of NMD is seen” value is listed as 125/250.

These data come from patent US9849146B2, “Inhibition of nonsense mediated mRNA decay by drugs that prevent hypusination of eukaryotic initiation factor 5A” (RUTGERS, THE STATE UNIVERSITY OF NEW JERSEY, priority 2009, dated 2017).
